Measurements as given in PMC3257521 (Biochemistry, 2011).
Changes are numbered by the printed parent chain. Names and notes keep the numbering of the source. Values joined by “and” are separate entries in the source; they are usually repeats but may differ in a detail not shown here. Identical values can stand only once. Like-named read-outs stand apart in the source and are kept apart here.

Columns and labels:
Pnc1 [1] = target: T1, Pnc1 (Saccharomyces cerevisiae, UniProt P53184); experiment: Pnc1 competitive inhibition; type: biochemical, S. cerevisiae; settings: for inhibition pattern: double-reciprocal analysis versus nicotinamide
[2] = target: nicotinamidase from M. lysodeikticus; settings: cited from earlier work
S. cerevisiae Pnc1 = settings: cited from earlier work
[3] = target: nicotinamidase from Mycobacterium tuberculosis; settings: cited from earlier work
Pnc1 [4] = target: T1, Pnc1; experiment: HPLC assay of substrate activity; type: biochemical, S. cerevisiae; settings: for kcat: HPLC assay, no activity above detection limit of 10^−5 s^−1
[5] = target: nicotinamidase from Tortula cremoris; settings: cited from earlier work
[6] = target: nicotinamidase from Fleischmann’s yeast; settings: cited from earlier work
Pnc1 [7] = target: T1, Pnc1; type: biochemical, S. cerevisiae
[8] = system: nicotinamidase from S. cerevisiae; settings: cited from earlier work
Pnc1 [9] = target: T1, Pnc1; experiment: 15N kinetic isotope effect with substrates; type: biochemical, S. cerevisiae
Pnc1 [10] = target: T1, Pnc1; experiment: 13C kinetic isotope effect with substrates; type: biochemical, S. cerevisiae
[11] = system: nicotinamidase from M. lysodeikticus; settings: cited from earlier work; remark: listed apart in the source
Pnc1 [12] = target: T1, Pnc1; experiment: Product inhibition by ammonium ion, HPLC assay; type: biochemical, S. cerevisiae; settings: for inhibition pattern: versus nicotinamide, data not shown
Pnc1 [13] = target: T1, Pnc1; experiment: Effect of EDTA or ZnCl2 on Pnc1 activity; type: biochemical, S. cerevisiae; settings: data not shown
Pnc1 [14] = target: T1, Pnc1; experiment: Dependence of kcat on pH; type: biochemical, S. cerevisiae; settings: pH 4.5 to 10.5
[15] = 25 °C in 0.1 N NaOH; cited from earlier work
yeast nicotinamidases = settings: previous reports; cited from earlier work
[16] = system: nicotinamidase from M. tuberculosis; settings: cited from earlier work
Pnc1 [17] = target: T1, Pnc1; settings: 100 mM ammonium chloride and 5 mM nicotinic acid, 5 µM Pnc1, 150 minutes, pH 7.5; no nicotinamide detected
Pnc1 WT or mutant [18] = experiment: Steady-state kinetic parameters of Pnc1 mutants, enzyme-coupled assay; type: biochemical, S. cerevisiae; settings: substrate nicotinamide; for kcat: pH 7.5
Pnc1 WT or mutant [19] = experiment: 15N kinetic isotope effect of Pnc1 mutants; type: biochemical, S. cerevisiae; settings: substrate nicotinamide
Pnc1 WT or mutant [20] = experiment: 13C kinetic isotope effect of Pnc1 mutants; type: biochemical, S. cerevisiae; settings: substrate nicotinamide
[21] = substrate: Cc1cncc(C(N)=O)c1; type: biochemical, S. cerevisiae; settings: other: substrate of Pnc1, pH 7.5, 25.0 °C
[22] = substrate: NC(=O)c1ccccc1; type: biochemical, S. cerevisiae; settings: other: substrate of Pnc1, pH 7.5, 25.0 °C
[23] = substrate: NC(=O)c1cccnc1; type: biochemical, S. cerevisiae; settings: other: substrate of Pnc1, pH 7.5, 25.0 °C
[24] = substrate: NC(=O)c1cnccn1; type: biochemical, S. cerevisiae; settings: other: substrate of Pnc1, pH 7.5, 25.0 °C
[25] = substrate: NC(=S)c1cccnc1; type: biochemical, S. cerevisiae; settings: other: substrate of Pnc1, pH 7.5, 25.0 °C

In the case of `O=Cc1cccnc1` [nicotinaldehyde], the Ki (Pnc1 [1]) is listed as 0.94 ± 0.35 µM, the “Ki fold below the Km value of nicotinamide” value (Pnc1 [1]; vs Km 9.6 µM for nicotinamide) is listed as 10 fold and the Ki [2] is listed as 0.018 µM. For the same molecule, the Ki (S. cerevisiae Pnc1) was 1.4 µM and the Ki [3] was 0.29 µM.

For `O=Cc1ccccc1` [benzaldehyde], the Ki (Pnc1 [1]) is given as 20600 ± 5700 µM, the “fold less potent inhibitor compared to nicotinaldehyde” value (Pnc1 [1]) is given as 22,000 fold and the Ki [2] is given as 1800 µM.

For `NC(=O)c1ccc[n+]([C@@H]2O[C@H](COP(=O)([O-])O)[C@@H](O)[C@H]2O)c1` [nicotinamide mononucleotide (NMN^+), nicotinamide mononucleotide], the substrate activity (Pnc1 [4]) was “not substrates” and the kcat (Pnc1 [4]) was < 10^−5 ^c s^−1.

For `CC(=O)c1cccnc1` [3-acetylpyridine], the Ki (Pnc1 [1]) is given as 316 ± 101 µM, the inhibition pattern (Pnc1 [1]) is given as “competitive inhibition” and the Ki [2] is given as 160 µM. For the same molecule, the Ki [5] was 305 µM and the Ki [6] was 65 µM.

In the case of `C[n+]1cccc(C(N)=O)c1` [1-methylnicotinamide], the “fold decreased kcat/Km compared to nicotinamide” value (Pnc1 [7]) is given as 8400 fold and the substrate activity ([8]; S. cerevisiae Pnc1, French et al.) is given as “no activity”.

In the case of `NC(=S)c1cccnc1` [thionicotinamide], the “increase in 15N KIE value compared to nicotinamide” value (Pnc1 [9]) is reported as 1.4% and the “15N KIE” value (Pnc1 [9]; on V/K, pH 7.5) is reported as 1.0262 ± 0.0019.

In the case of `Cc1cncc(C(N)=O)c1` [5-methylnicotinamide], the “fold higher Km compared to nicotinamide” value (Pnc1 [7]) is reported as 6 fold, the “15N KIE” value (Pnc1 [9]; on V/K, pH 7.5) is reported as 1.0151 ± 0.0009 and the “13C KIE” value (Pnc1 [10]; on V/K, pH 7.5) is reported as 1.0269 ± 0.0037. The Km [11] was 360 µM.

In the case of `O=C(O)c1cnccn1` [pyrazinoic acid], the Ki (Pnc1 [1]) is reported as 6700 ± 1700 µM, the “fold higher Ki value compared to nicotinic acid” value (Pnc1 [1]) is reported as 56 fold and the inhibition pattern (Pnc1 [1]) is reported as “competitive inhibition patterns”.

In the case of `Cl.N` [ammonium chloride], the “concentration required for inhibition” value (Pnc1 [12]) is reported as “greater than 10 mM”, the inhibition pattern (Pnc1 [12]) is reported as “non-competitive inhibition” and the inhibition pattern (Pnc1 [12]; listed as ammonium ion) is reported as “non-competitive inhibition patterns”.

With `O=C(O)CN(CCN(CC(=O)O)CC(=O)O)CC(=O)O` [EDTA, ethylenediaminetetraacetic acid] the “inhibition of Pnc1” value (Pnc1 [13]; 10 mM) was “did not inhibit”.

With `NC(=O)c1cccnc1` [nicotinamide] the kcat (Pnc1 [7]; substrate of Pnc1, pH 7.5) was 0.69 s⁻¹, the “15N KIE” value (Pnc1 [9]; as percent) was ~ 1.2% and 1.2% and the “15N KIE” value (Pnc1 [9]; on V/K, pH 7.5) was 1.0122 ± 0.0002. The “13C KIE” value (Pnc1 [10]; as percent) was ~ 1.2%, the “13C KIE” value (Pnc1 [10]; on V/K, pH 7.5) was 1.0125 ± 0.0004 and the “critical ionizations in kcat pH profile” value (Pnc1 [14]) was “no critical ionizations”. The “variation of kcat between the pH extremes” value (Pnc1 [14]) was 4 fold, the “pseudo-first-order rate of hydrolysis in basic solutions” value [15] was 0.0301 h⁻¹ and the Km (yeast nicotinamidases) was 6 to 10 µM.

In the case of `NC(=O)C1=CN([C@@H]2O[C@H](COP(=O)(O)OP(=O)(O)OC[C@H]3O[C@@H](n4cnc5c(N)ncnc54)[C@H](O)[C@@H]3O)[C@@H](O)[C@H]2O)C=CC1` [β-nicotinamide adenine dinucleotide], the substrate activity (Pnc1 [4]) is reported as “not substrates”, the kcat (Pnc1 [4]) is reported as < 10^−5 ^c s^−1 and the kcat (Pnc1 [4]; listed as NAD^+) is reported as < 10^−5 s^−1.

For `NC(=O)c1cnccn1` [pyrazinamide], the “fold decreased kcat/Km compared to nicotinamide” value (Pnc1 [7]) was 4.5 fold, the “fold faster kcat compared to nicotinamide” value (Pnc1 [7]) was 3.7 fold and the “fold higher Km compared to nicotinamide” value (Pnc1 [7]) was 16 fold. The “15N KIE” value (Pnc1 [9]; as percent) was 2.3%, the “15N KIE” value (Pnc1 [9]; on V/K, pH 7.5) was 1.0231 ± 0.0007 and the “13C KIE” value (Pnc1 [10]; as percent) was 2.0%. The “13C KIE” value (Pnc1 [10]; on V/K, pH 7.5) was 1.0196 ± 0.0023, the Km [8] was 200 µM and the Km [16] was 300 µM.

With `O=C(O)c1cccnc1` [nicotinic acid] the Ki (Pnc1 [1]) was 120 ± 19 µM, the inhibition pattern (Pnc1 [1]) was “competitive inhibition patterns” and the “reverse reaction rate (upper estimate)” value (Pnc1 [17]) was < 10^−5 s^−1. The inhibition (S. cerevisiae Pnc1; French et al.) was “no inhibition”.

In the case of `[Cl-].[Cl-].[Zn+2]` [ZnCl2], the “effect on activity of wild type Pnc1” value (Pnc1 [13]; 2 mM) is reported as “failed to increase activity”.

B1: Pnc1 (Saccharomyces cerevisiae S288C) (protein)
chain: MKTLIVVDMQNDFISPLGSLTVPKGEELINPISDLMQDADRDWHRIVVTRDWHPSRHISFAKNHKDKEPYSTYTYHSPRPGDDSTQEGILWPVHCVKNTWGSQLVDQIMDQVVTKHIKIVDKGFLTDREYYSAFHDIWNFHKTDMNKYLEKHHTDEVYIVGVALEYCVKATAISAAELGYKTTVLLDYTRPISDDPEVINKVKEELKAHNINVVDK
In the case of B1, the kcat (Pnc1 WT or mutant [18]) is reported as 0.69 ± 0.04 s⁻¹, the “15N KIE” value (Pnc1 WT or mutant [19]; as percent) is reported as ~ 1.25% and the “15N KIE” value (Pnc1 WT or mutant [19]; pH 7.5) is reported as 1.0122 ± 0.0002. For the same molecule, the “13C KIE” value (Pnc1 WT or mutant [20]; as percent) was ~ 1.25%, the “13C KIE” value (Pnc1 WT or mutant [20]; pH 7.5) was 1.0125 ± 0.0004 and the Km [21] was 61 ± 6 µM. It also gave a kcat [21] of 1.75 ± 0.05 s⁻¹, a kcat/Km [21] of 29000 ± 2000 M⁻¹ s⁻¹ and a Km [22] of 25 ± 7 µM. For the same molecule, the kcat [22] was 0.0088 ± 0.0004 s⁻¹, the kcat/Km [22] was 350 ± 90 M⁻¹ s⁻¹ and the Km [23] was 9.6 ± 2.1 µM. For the same molecule, the kcat [23] was 0.69 ± 0.04 s⁻¹, the kcat/Km [23] was 72000 ± 12000 M⁻¹ s⁻¹ and the Km [24] was 157 ± 16 µM. The kcat [24] was 2.56 ± 0.1 s⁻¹, the kcat/Km [24] was 16000 ± 1000 M⁻¹ s⁻¹ and the kcat/Km [25] was 50 ± 17 M⁻¹ s⁻¹.

B2: D51N (protein, UniProt P53184 1-216, looked up, variant D51N)
Nicotinamidase: B1 chain with D51N
In the case of B2, the “fold more active than the D51A mutant” value (Pnc1 WT or mutant [18]) is reported as 3 fold, the kcat (Pnc1 WT or mutant [18]) is reported as 0.064 ± 0.012 s⁻¹ and the “15N KIE” value (Pnc1 WT or mutant [19]; as percent) is reported as ~ 0.5%. The “15N KIE” value (Pnc1 WT or mutant [19]; pH 7.5) was 1.0047 ± 0.0006, the “13C KIE” value (Pnc1 WT or mutant [20]; as percent) was ~ 0.5% and the “13C KIE” value (Pnc1 WT or mutant [20]; pH 7.5) was 1.0058 ± 0.0006.

B3: D8N (protein, UniProt P53184 1-216, looked up, variant D8N)
Nicotinamidase: B1 chain with D8N
For B3, the “fold lower kcat compared to Pnc1 WT” value (Pnc1 WT or mutant [18]) was 1150 fold and the kcat (Pnc1 WT or mutant [18]) was 0.0006 ± 0.0001 s⁻¹.

B4: K122A (protein, UniProt P53184 1-216, looked up, variant K122A)
Nicotinamidase: B1 chain with K122A
For B4, the “fold lower kcat compared to Pnc1 WT” value (Pnc1 WT or mutant [18]) was 16 fold and the kcat (Pnc1 WT or mutant [18]) was 0.044 ± 0.023 s⁻¹.

B5: H53A (protein, UniProt P53184 1-216, looked up, variant H53A)
Nicotinamidase: B1 chain with H53A
B5 gave a kcat (Pnc1 WT or mutant [18]) of 0.014 ± 0.002 s⁻¹.

B6: D8E (protein, UniProt P53184 1-216, looked up, variant D8E)
Nicotinamidase: B1 chain with D8E
For B6, the “fold lower kcat compared to Pnc1 WT” value (Pnc1 WT or mutant [18]) was 100 fold, the kcat (Pnc1 WT or mutant [18]) was 0.0070 ± 0.0001 s⁻¹ and the “15N KIE” value (Pnc1 WT or mutant [19]; pH 7.5) was 1.0218 ± 0.0015. The “13C KIE” value (Pnc1 WT or mutant [20]; pH 7.5) was 1.0258 ± 0.0012.

B7: D51A (protein, UniProt P53184 1-216, looked up, variant D51A)
Nicotinamidase: B1 chain with D51A
In the case of B7, the kcat (Pnc1 WT or mutant [18]) is reported as 0.020 ± 0.005 s⁻¹, the “15N KIE” value (Pnc1 WT or mutant [19]; pH 7.5) is reported as 1.0166 ± 0.0018 and the “13C KIE” value (Pnc1 WT or mutant [20]; pH 7.5) is reported as 1.0075 ± 0.0015.

B8: D8A (protein, UniProt P53184 1-216, looked up, variant D8A)
Nicotinamidase: B1 chain with D8A
In the case of B8, the “fold lower kcat compared to Pnc1 WT” value (Pnc1 WT or mutant [18]) is reported as 767 fold and the kcat (Pnc1 WT or mutant [18]) is reported as 0.0009 ± 0.0001 s⁻¹.

B9: H94A (protein, UniProt P53184 1-216, looked up, variant H94A)
Nicotinamidase: B1 chain with H94A
In the case of B9, the kcat (Pnc1 WT or mutant [18]) is reported as 0.020 ± 0.002 s⁻¹.
